Assay results from the NIST ThermoML archive (doi:10.1021/je200111a).
± gives the expanded uncertainty stated by the source.

Key:
[1] = Liquid; for mass density: 298.15 K, 101.33 kPa; for vapor or sublimation pressure: Ebulliometric method (Recirculating still)
[2] = refractive index (Na D-line) (dimensionless); details: 298.15 K; 101.33 kPa; Liquid; Standard Abbe refractometry

Row | mass density [1] [kg/m3] | vapor or sublimation pressure ([1]; 358.35 K) [kPa] | vapor or sublimation pressure ([1]; 411.05 K) [kPa] | refractive index [2] | vapor or sublimation pressure ([1]; 366.55 K) [kPa] | vapor or sublimation pressure ([1]; 366.65 K) [kPa] | vapor or sublimation pressure ([1]; 427.62 K) [kPa] | vapor or sublimation pressure ([1]; 427.65 K) [kPa] | vapor or sublimation pressure ([1]; 353.75 K) [kPa] | vapor or sublimation pressure ([1]; 403.75 K) [kPa] | Compound
1 | 811.2 ± 0.4 | 13 ± 0.17 | 101.3 ± 1.8 | 1.4077 ± 0.0007 | – | – | – | – | – | – | CCCCCO [pentan-1-ol]
2 | 1028.6 ± 0.2 | – | – | 1.41057 ± 0.00072 | 13 ± 0.2 | 13 ± 0.2 | 101.3 ± 2 | 101.3 ± 2 | – | – | CCOC(=O)[C@H](C)O [(S)-(-)-ethyl lactate]
3 | 807.6 ± 0.4 | – | – | 1.4051 ± 0.0007 | – | – | – | – | 13 ± 0.16 | 101.3 ± 1.7 | CC(C)CCO [3-methylbutan-1-ol]
